One data set concerns BC-3-pLenti-GLuc cells. The data set can be described thus: Matador assay, drug induced cytotoxicity, BC-3. The class given is cell-based. The conditions noted are these: 96 hours, different doses.
The subject of a further data set is BCBL-1-pLenti-GLuc cells. As to the kind of experiment: Matador assay, drug induced cytotoxicity, BCBL-1. As to conditions: 96 hours, different doses.
Data set [1] concerns CAR CD8SP2-CD19MM-(vL-vH)-Myc-BBz-T2A-PAC T cell induced death of RAJI cells stably expressing GLuc. The data set can be described thus: Matador assay, drug modulation of CAR-T cell induced lysis of RAJI-GLuc cells. It is filed as cell-based, Human. The conditions noted are these: E:T 5:1, 4 hours co-culture; Dasatinib 50 nM and 100 nM. On the procedure: Human peripheral blood T cells isolated using CD3 magnetic beads were infected with lentiviruses expressing the CAR construct CD8SP2-CD19MM-(vL-vH)-Myc-BBz-T2A-PAC [SEQ ID NO: 82] targeting CD19 and selected with puromycin. CAR-T cells were pre-incubated with the indicated concentrations of Dasatinib and Imatinib for approximately 30 min at 37° C. The drug-treated and untreated T cells were plated in a white 384-well plate. […] Dasatinib (Das) and Imatinib (Imat) were added to the wells to maintain the final concentrations as indicated. […] Therefore, the assay can be used to screen for and identify candidate compounds that modulate the activity of cytotoxic cells, such as cytotoxic T cells, NK cells, CAR-T cells and T cells expressing engineered TCRs.

Another data set deals with L428-GLuc cells. As to the kind of experiment: Matador assay, antibody drug conjugate induced cell death, L428. As to conditions: 5 days of drug treatment. It is filed as cell-based. The protocol:
(§1) We next used the Matador cytotoxicity assay to measure cell death induced by CD30-directed antibody-drug-conjugate (ADC), Brentuximab vedotin (Adcetris). […] Similarly, Jurkat cells were transduced with MSCVhygro-GLuc-HA-G02 (SEQ ID NO: 95) retroviral vector and selected with hygromycin to generate Jurkat-GLuc stable cell line. These GLuc-expressing target cells were plated at a concentration of 10×10^5 cells/well in a flat-bottom 24 well plate in 500 μl of phenol-red-free RPMI medium with 10% FBS and treated with the indicated dose of Brentuximab vedotin. After 5 days of drug treatment, the cells were mixed well, collected in 1.5 ml microfuge tubes and divided into 3 groups of 166 μl each. For the first group, the cells with cell supernatant were directly assayed for luciferase activity by plating 30 μl of cells/well in a white 384 well plate in triplicate. For the second group, 166 μl of cells were centrifuged and only cell supernatants were collected in a new tube and plated at 30 μl/well in triplicate in a white 384 well plate. […] The luciferase activity was precisely measured by BioTek synergy plate reader by injecting 0.5× CTZ assay buffer containing native coeloentrazine into each well of the 384 well plate in a well mode. […]

The next data set concerns Jurkat-GLuc cells. The data set can be described thus: Matador assay, antibody drug conjugate induced cell death, Jurkat. As to conditions: 5 days of drug treatment. The class given is cell-based. The protocol:
as §1

The subject of another data set is KMH2-GLuc cells. The data set can be described thus: Matador assay, antibody drug conjugate induced cell death, KMH2. The conditions noted are these: 5 days of drug treatment. The class given is cell-based. On the procedure: as §1
The test system of data set [2] is RAJI cells expressing GLuc. As to the kind of experiment: Antibody-dependent cellular cytotoxicity (ADCC) Matador assay. The class given is cell-based. On the procedure: Antibody-dependent cellular cytotoxicity (ADCC) assay was performed performed essentially as described earlier (Teeling, French et al. 2004). To determine the cytotoxicity of Rituximab monoclonal antibody, the cell death was assessed using Matador assay. Peripheral Blood Mononuclear Cells (PBMC) were isolated by Ficoll-Hypaque gradient centrifugation from buffy coat cells obtained from a de-identified healthy donor as a source of natural effector. […] The cells were either left untreated, or treated with 1 μg/ml or 10 μg/ml of Rituximab. The plates were incubated at 37° C. for 4 hours in a CO2 incubator. After incubation for 4 hours, the cell death was assessed by luciferase assay by addition of CTZ assay buffer containing native coelentrazine to the wells as described earlier.

Data set [3] in a line: Stability of luciferases in cell culture supernatants at 37° C. under Matador assay conditions. The class given is physicochemical. The conditions noted are these: for time for which luminescence was stable: cell culture supernatants of K562 cells co-cultured with NK92MI. On the procedure:
Post-incubation, the cell-free supernatants were divided into 7 different tubes and frozen immediately at −80° C. The tubes were then incubated at 37° C. for 0, 0.5, 1, 2, 4, 6, and 24 hours.
Although thermostable luciferases are stable at 37° C., it was not obvious whether thermostability is the only criteria for stability of a reporter under the conditions used in the cytotoxicity assays. Thus, a thermostable luciferase could be degraded under the culture conditions of the cytotoxicity assay due to the activity of proteases that are present in the serum or are released during the process of cell death. Therefore, to examine whether thermostable luciferases are suitable for inclusion in the Matador cytotoxicity assay, K562 cells stably expressing LucPPe-146-1H2 mutant were plated in a 6-well plate, treated with media alone (control) or co-cultured with NK92MI at Effector:Target (E:T) ratio of 1:1 for 4 hours. After incubation, cell-free supernatants were transferred into 7 different tubes and frozen immediately at −80° C. The tubes were directly transferred to 37° C. (from −80° C.) and were incubated for indicated time periods (0 to 24 hours). The luminescence was measured by adding D-luciferin containing assay buffer directly to each well in well mode. […] Furthermore, the luminescence signal was stable in the cell culture medium for nearly 4-6 hours.

The conditions of data set [4]: cited from earlier work.
Data set [5] is described as follows: Stability of luciferase activity in supernatants after freezing and thawing. It is filed as physicochemical. As to conditions: supernatants frozen, thawed two weeks later. The source says: Two weeks later, the supernatants were thawed and then re-assayed after addition of coeloentrazine.

Where only a bound is given, the exact number is not on record here.

Method for BC-3-pLenti-GLuc cells: (§2) The cell pellets were lysed in 1× Renilla Luciferase Assay Lysis Buffer by diluting one volume of 5× Renilla Luciferase Assay Lysis Buffer (Promega, Cat #E2820) into four volumes of distilled water. GLuc activity was measured in the cellular supernatants and cell lysates fractions separately in triplicate by addition of 0.25× coelentrazine assay buffer (15 μl of assay buffer added to 15 μl of sample in a 384 well plate) to each fraction. For each sample, the average GLuc activity in the cellular supernatant was divided by the average GLuc activity in the cell lysates to normalize for difference in the number of GLuc expressing cells.
Method for BCBL-1-pLenti-GLuc cells: as §2

As to `COc1c(C)cnc(Cn2cnc3c(Cl)nc(N)nc32)c1C` [BIIB021], the “GLuc activity in the supernatant normalized to cell lysates” value in the data set with BC-3-pLenti-GLuc cells and with BCBL-1-pLenti-GLuc cells was “significant increase in GLuc activity in the supernatant” throughout.
As for `Cc1ccc(NC(=O)c2ccc(CN3CCN(C)CC3)cc2)cc1Nc1nccc(-c2cccnc2)n1` [Imatinib], the “CAR-T cell induced cell death (GLuc activity)” value in data set [1] is listed as “no effect”.
`Cc1sc2c(c1C)C(c1ccc(Cl)cc1)=N[C@@H](CC(=O)OC(C)(C)C)c1nnc(C)n1-2` [JQ1]: the “GLuc activity in the supernatant normalized to cell lysates” value in the data set with BC-3-pLenti-GLuc cells and in the data set with BCBL-1-pLenti-GLuc cells was “significant increase in GLuc activity in the supernatant” throughout.
As for Brentuximab vedotin, the “GLuc activity in cell supernatant normalized for GLuc activity in cell lysates” value in the data set with L428-GLuc cells, in the data set on Jurkat-GLuc cells and in the data set with KMH2-GLuc cells was “significant increase in GLuc activity in cell supernatant” in each case. Further, the “GLuc activity in the supernatant” value with L428-GLuc cells (not normalized), with Jurkat-GLuc cells (not normalized) and in the data set on KMH2-GLuc cells (not normalized) was “increase in GLuc activity in the supernatant” in each case.
As for “rituximab: Rituximab monoclonal antibody, obtained from Genentech”, the luciferase activity entry is “Essentially similar results” in [2] (RAJI cells stably expressing NLuc); “increase in luciferase activity” in data set [2] (in the presence of PBMC, 1 μg/ml and 10 μg/ml); “increase in luciferase activity” in data set [2] (rituximab alone, 1 μg/ml and 10 m/ml, 4 hours, vs untreated cells). In data set [2] (in the presence of PBMC, 4 hours, vs untreated cells), the “increase in GLuc activity” value is listed as “greater than 10 fold”.

B1: NLuc: NanoLuc, SEQ ID NO: 32 (protein)
chain: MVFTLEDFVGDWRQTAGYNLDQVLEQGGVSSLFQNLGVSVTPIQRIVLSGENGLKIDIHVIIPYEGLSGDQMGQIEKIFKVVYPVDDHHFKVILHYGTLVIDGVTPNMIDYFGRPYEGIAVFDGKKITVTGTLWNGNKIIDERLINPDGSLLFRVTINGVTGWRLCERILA
modifications: NLuc (NanoLuc)
Consider B1, for which, in data set [3], the “time for which luminescence was stable” value stood at 24 h. Further, the “time activity is retained in culture medium” value in data set [4] (37° C.) is over 15 h. For the same molecule, in data set [4] (configured for glow-type assays), the “specific activity relative to firefly or Renilla luciferases” value was about 150 fold.

B2: TLuc16: TurboLuc16, SEQ ID NO: 33 (protein)
chain: MEAEAERGKLPGKKLPLEVLIELEANARKAGCTRGCLICLSKIKCTAKMKKYIPGRCADYGGDKKTGQAGIVGAIVDIPEISGFKEMEPMEQFIAQVDRCADCTTGCLKGLANVKCSDLLKKWLPGRCATFADKIQSEVDNIKGLAGD
modifications: TLuc (TurboLuc16)
For B2, in data set [3], the “time for which luminescence was stable” value worked out at 24 h.

B3: Mluc7: Metrida longa Luc7 M43L/M110L variant, SEQ ID NO: 34 (protein)
chain: MNPTVNNDVNRGKMPGKKLPLEVLIELEANAFKAGCTRGCLICLSKIKCTAKMKQYIPGRCHDYGGDKKTGQAGIVGAIVDIPEISGFKEMEPLEQFIAQVDLCADCTTGCLKGLANVKCSELLKKWLPDRCASFADKIQKEAHNIKGLAGDR
modifications: MLuc7 (Metrida longa Luc7) M43L/M110L variant
In the case of B3, in [3], the “time for which luminescence was stable” value is 24 h.

B4: Renilla Luc: Renilla Luc, SEQ ID NO: 49 (protein)
chain: MASKVYDPEQRKRMITGPQWWARCKQMNVLDSFINYYDSEKHAENAVIFLHGNAASSYLWRHVVPHIEPVARCIIPDLIGMGKSGKSGNGSYRLLDHYKYLTAWFELLNLPKKIIFVGHDWGACLAFHYSYEHQDKIKAIVHAESVVDVIESWDEWPDIEEDIALIKSEEGEKMVLENNFFVETMLPSKIMRKLEPEEFAAYLEPFKEKGEVRRPTLSWPREIPLVKGGKPDVVQIVRNYNAYLRASDDLPKMFIESDPGFFSNAIVEGAKKFPNTEFVKVKGLHFSQEDAPDEMGKYIKSFVERVLKNEQ
modifications: RLuc (Renilla Luc)
Turning to B4, in [5], the “luciferase activity after freezing and thawing” value is on record as “no major change”.

B5: LucPPe-146-1H2: thermostable luciferase from Photuris pennsylvanica, SEQ ID NO: 51 (protein)
chain: MADKNILYGPEPFYPLEDGTAGEQMFDALSRYAAIPGCIALTNAHTKENVLYEEFLKLSCRLAESFKKYGLKQNDTIAVCSENSLQFFLPVIASLYLGIIVAPVNDKYIERELIHSLGIVKPRIVFCSKNTFQKVLNVKSKLKSIETIIILDLNEDLGGYQCLNNFISQNSDSNLDVKKFKPYSFNRDDQVASIMFSSGTTGLPKGVMLTHKNIVARFSIAKDPTFGNAINPTSAILTVIPFHHGFGMMTTLGYFTCGFRVVLMHTFEEKLFLQSLQDYKVESTLLVPTLMAFLAKSALVEKYDLSHLKEIASGGAPLSKEIGEMVKKRFKLNFVRQGYGLTETTSAVLITPKGDAKPGSTGKIVPLHAVKVVDPTTGKILGPNEPGELYFKGPMIMKGYYNNEEATKAIIDNDGWLRSGDIAYYDNDGHFYIVDRLKSLIKYKGYQVAPAEIEGILLQHPYIVDAGVTGIPDEAAGELPAAGVVVQTGKYLNEQIVQDYVASQVSTAKWLRGGVKFLDEIPKGSTGKIDRKVLRQMLEKHTNG
modifications: LucPPe-146-1H2
With B5, in data set [3] (supernatants of K562 LucPPe-146-1H2 cells), the “time for which luminescence signal was stable in the cell culture medium” value lay within 4 to 6 h.

(Values after patent publication US11307205B2, “Non-radioactive cytotoxicity assays” (University of Southern California, priority 2016, dated 2022).)
